According to ChEMBL document CHEMBL5375973, “Design and Synthesis of Novel Near-Infrared Fluorescence Probes Based on an Open Conformation of a Cytochrome P450 1B1 Complex for Molecular Imaging of Colorectal Tumors” (J Med Chem, 2023):

Columns and labels:
Format in all cases: ADME
Cytochrome P450 1B1 = molecular target: T1, Cytochrome P450 1B1 (Homo sapiens, UniProt Q16678); experiment: Inhibition of recombinant CYP1B1 (unknown origin) using 7-ethoxyresorufin as substrate preincubated for 5 mins followed by NADPH addition incubated for 35 mins by EROD assay
T1 sequence (Q16678 whole entry): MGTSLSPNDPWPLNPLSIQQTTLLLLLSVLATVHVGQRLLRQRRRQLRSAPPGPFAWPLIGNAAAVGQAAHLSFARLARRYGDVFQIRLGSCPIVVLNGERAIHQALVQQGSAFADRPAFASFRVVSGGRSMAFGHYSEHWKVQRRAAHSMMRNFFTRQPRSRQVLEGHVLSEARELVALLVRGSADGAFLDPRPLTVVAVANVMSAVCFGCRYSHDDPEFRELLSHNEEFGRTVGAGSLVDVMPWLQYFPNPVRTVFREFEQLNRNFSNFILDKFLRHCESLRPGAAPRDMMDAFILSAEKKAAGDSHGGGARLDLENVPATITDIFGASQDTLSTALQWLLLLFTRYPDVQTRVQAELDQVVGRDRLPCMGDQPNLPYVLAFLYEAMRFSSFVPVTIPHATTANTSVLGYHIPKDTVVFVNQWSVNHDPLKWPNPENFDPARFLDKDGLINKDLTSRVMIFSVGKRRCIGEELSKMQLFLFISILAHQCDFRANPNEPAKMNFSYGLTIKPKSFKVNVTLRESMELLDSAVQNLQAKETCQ

Cytochrome P450 1A2 = molecular target: T2, Cytochrome P450 1A2 (Homo sapiens, UniProt P05177); experiment: Inhibition of recombinant CYP1A2 (unknown origin) using 7-ethoxyresorufin as substrate preincubated for 5 mins followed by NADPH addition incubated for 50 mins by EROD assay
T2 sequence (P05177 whole entry): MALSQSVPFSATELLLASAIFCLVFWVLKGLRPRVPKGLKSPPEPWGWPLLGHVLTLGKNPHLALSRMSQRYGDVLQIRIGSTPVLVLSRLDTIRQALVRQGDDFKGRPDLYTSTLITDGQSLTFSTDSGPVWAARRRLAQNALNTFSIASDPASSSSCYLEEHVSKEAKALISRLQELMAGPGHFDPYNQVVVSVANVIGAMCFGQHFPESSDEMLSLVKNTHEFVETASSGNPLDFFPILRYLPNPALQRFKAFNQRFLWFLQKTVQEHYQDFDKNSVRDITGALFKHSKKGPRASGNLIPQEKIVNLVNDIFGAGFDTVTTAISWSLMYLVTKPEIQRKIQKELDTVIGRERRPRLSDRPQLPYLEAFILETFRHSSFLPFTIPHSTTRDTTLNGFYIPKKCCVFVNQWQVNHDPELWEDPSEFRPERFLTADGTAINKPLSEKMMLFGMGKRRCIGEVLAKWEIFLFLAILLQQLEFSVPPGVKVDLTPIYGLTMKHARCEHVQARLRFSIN

Cytochrome P450 1A1 = molecular target: T3, Cytochrome P450 1A1 (Homo sapiens, UniProt P04798); experiment: Inhibition of recombinant CYP1A1 (unknown origin) using 7-ethoxyresorufin as substrate preincubated for 5 mins followed by NADPH addition incubated for 15 mins by EROD assay
T3 sequence (P04798 whole entry): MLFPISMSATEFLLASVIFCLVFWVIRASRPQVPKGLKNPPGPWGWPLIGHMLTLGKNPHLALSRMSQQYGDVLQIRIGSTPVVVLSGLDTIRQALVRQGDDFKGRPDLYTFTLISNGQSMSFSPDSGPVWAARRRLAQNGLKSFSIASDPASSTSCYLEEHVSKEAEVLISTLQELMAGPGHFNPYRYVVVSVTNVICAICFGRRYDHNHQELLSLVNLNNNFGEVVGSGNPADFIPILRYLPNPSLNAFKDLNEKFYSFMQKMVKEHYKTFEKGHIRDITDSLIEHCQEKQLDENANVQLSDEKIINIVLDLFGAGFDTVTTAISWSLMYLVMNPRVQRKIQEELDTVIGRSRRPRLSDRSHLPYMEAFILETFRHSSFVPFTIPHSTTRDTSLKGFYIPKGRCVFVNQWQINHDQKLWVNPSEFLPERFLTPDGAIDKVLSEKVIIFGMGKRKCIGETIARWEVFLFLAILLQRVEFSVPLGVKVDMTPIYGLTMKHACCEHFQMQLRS

Structure (SMILES)	IC50 (Cytochrome P450 1A2) [nM]	other results
COc1ccc(OC)c2c1c(OC)cc1c(=O)cc(-c3ccc(N)c(F)c3)oc12	–	IC50 (Cytochrome P450 1B1): 2.47 nM
COc1ccc(OC)c2c1c(OC)cc1c(=O)cc(-c3cc(F)cc(OCCOCCN)c3)oc12	525	–
COc1ccc(OC)c2c1c(OC)cc1c(=O)cc(-c3cc(F)cc(OCCOCCOCCOCCN)c3)oc12	> 2000	–
COc1ccc(OC)c2c1c(OC)cc1c(=O)cc(-c3cc(F)cc(OCCOCCOCCN)c3)oc12	1840	–
O=c1cc(-c2ccccc2)oc2c1ccc1ccccc12 [ALPHA-NAPHTHOFLAVONE]	–	IC50 (Cytochrome P450 1A1): 37.8 nM

Second part, led by results:

IC50 (Cytochrome P450 1A2) [nM]	Structure (SMILES)	other results
> 2000	COc1ccc(OC)c2c1c(OC)cc1c(=O)cc(-c3cc(F)cc(NC(=O)CCCCCCCCN)c3)oc12	–
1600	COc1ccc(OC)c2c1c(OC)cc1c(=O)cc(-c3cc(F)cc(NC(=O)COCCN)c3)oc12	–
> 2000	COc1ccc(OC)c2c1c(OC)cc1c(=O)cc(-c3cc(F)cc(NC(=O)COCCOCCN)c3)oc12	–
514	COc1ccc(OC)c2c1c(OC)cc1c(=O)cc(-c3cc(F)cc(NC(=O)CCCCN)c3)oc12	–
